Measured values from publication PMC10088252.

## O=C(Nc1ccc(Oc2ccnc3c2CCN3)c(F)c1)c1c[nH]cc(-c2ccc(F)cc2)c1=O
400 mg BID (n=4)
  TRAE Urinary retention, any grade: 0 n (%)
  TRAE Urinary retention, grade 3-4: 0 n (%)
  TRAE Urinary tract infection, any grade: 0 n (%)
  TRAE Urinary tract infection, grade 3-4: 0 n (%)
  TRAE Ventricular arrhythmia, any grade: 0 n (%)
  TRAE Ventricular arrhythmia, grade 3-4: 0 n (%)
  TRAE Ventricular extrasystoles, any grade: 0 n (%)
  TRAE Ventricular extrasystoles, grade 3-4: 0 n (%)
  TRAE Vomiting, any grade: 1 (25.0) n (%)
  TRAE Vomiting, grade 3-4: 0 n (%)
  TRAE Weight loss, any grade: 0 n (%)
  TRAE Weight loss, grade 3-4: 0 n (%)
450 mg QD (n=12)
  TRAE Accessory nerve disorder, any grade: 0 n (%)
  TRAE Accessory nerve disorder, grade 3-4: 0 n (%)
  TRAE Activated partial thromboplastin time prolonged, any grade: 1 (8.3) n (%)
  TRAE Activated partial thromboplastin time prolonged, grade 3-4: 0 n (%)
  TRAE Anaemia, any grade: 1 (8.3) n (%)
  TRAE Anaemia, grade 3-4: 1 (8.3) n (%)
  TRAE Anaesthesia oral, any grade: 0 n (%)
  TRAE Anaesthesia oral, grade 3-4: 0 n (%)
  TRAE Arrhythmia, any grade: 0 n (%)
  TRAE Arrhythmia, grade 3-4: 0 n (%)
  TRAE Arthralgia, any grade: 1 (8.3) n (%)
  TRAE Arthralgia, grade 3-4: 0 n (%)
  TRAE Asthenia, any grade: 2 (16.7) n (%)
  TRAE Asthenia, grade 3-4: 0 n (%)
  TRAE Blister, any grade: 1 (8.3) n (%)
  TRAE Blister, grade 3-4: 0 n (%)
  TRAE Chest discomfort, any grade: 0 n (%)
  TRAE Chest discomfort, grade 3-4: 0 n (%)
  TRAE Chronic kidney disease, any grade: 1 (8.3) n (%)
  TRAE Chronic kidney disease, grade 3-4: 0 n (%)
  TRAE Constipation, any grade: 5 (41.7) n (%)
  TRAE Constipation, grade 3-4: 0 n (%)
  TRAE Cough, any grade: 0 n (%)
  TRAE Cough, grade 3-4: 0 n (%)
  TRAE Decreased Ccr, any grade: 2 (16.7) n (%)
  TRAE Decreased Ccr, grade 3-4: 0 n (%)
  TRAE Decreased appetite, any grade: 2 (16.7) n (%)
  TRAE Decreased appetite, grade 3-4: 0 n (%)
  TRAE Diarrhoea, any grade: 1 (8.3) n (%)
  TRAE Diarrhoea, grade 3-4: 0 n (%)
  TRAE Dizziness, any grade: 0 n (%)
  TRAE Dizziness, grade 3-4: 0 n (%)
  TRAE Dry mouth, any grade: 2 (16.7) n (%)
  TRAE Dry mouth, grade 3-4: 0 n (%)
  TRAE Dysgeusia, any grade: 3 (25.0) n (%)
  TRAE Dysgeusia, grade 3-4: 0 n (%)
  TRAE Dyskinesia, any grade: 0 n (%)
  TRAE Dyskinesia, grade 3-4: 0 n (%)
  TRAE Dysphonia, any grade: 0 n (%)
  TRAE Dysphonia, grade 3-4: 0 n (%)
  TRAE Dyspnoea, any grade: 0 n (%)
  TRAE Dyspnoea, grade 3-4: 0 n (%)
  TRAE Electrocardiogram QT prolonged, any grade: 0 n (%)
  TRAE Electrocardiogram QT prolonged, grade 3-4: 0 n (%)
  TRAE Elevated ALT, any grade: 5 (41.7) n (%)
  TRAE Elevated ALT, grade 3-4: 0 n (%)
  TRAE Elevated AST, any grade: 5 (41.7) n (%)
  TRAE Elevated AST, grade 3-4: 0 n (%)
  TRAE Elevated D dimer, any grade: 0 n (%)
  TRAE Elevated D dimer, grade 3-4: 0 n (%)
  TRAE Elevated GGT, any grade: 0 n (%)
  TRAE Elevated GGT, grade 3-4: 0 n (%)
  TRAE Elevated LDH, any grade: 0 n (%)
  TRAE Elevated LDH, grade 3-4: 0 n (%)
  TRAE Elevated alpha-HBDH, any grade: 0 n (%)
  TRAE Elevated alpha-HBDH, grade 3-4: 0 n (%)
  TRAE Elevated bilirubin, any grade: 0 n (%)
  TRAE Elevated bilirubin, grade 3-4: 0 n (%)
  TRAE Elevated blood creatinine, any grade: 2 (16.7) n (%)
  TRAE Elevated blood creatinine, grade 3-4: 0 n (%)
  TRAE Elevated creatine phosphokinase, any grade: 1 (8.3) n (%)
  TRAE Elevated creatine phosphokinase, grade 3-4: 0 n (%)
  TRAE Elevated serum urea, any grade: 0 n (%)
  TRAE Elevated serum urea, grade 3-4: 0 n (%)
  TRAE Elevated troponin, any grade: 1 (8.3) n (%)
  TRAE Elevated troponin, grade 3-4: 0 n (%)
  TRAE Genital rash, any grade: 0 n (%)
  TRAE Genital rash, grade 3-4: 0 n (%)
  TRAE Haematuria, any grade: 3 (25.0) n (%)
  TRAE Haematuria, grade 3-4: 0 n (%)
  TRAE Headache, any grade: 0 n (%)
  TRAE Headache, grade 3-4: 0 n (%)
  TRAE Hyperhidrosis, any grade: 1 (8.3) n (%)
